The nature of data set [1]: Inhibition of DNA-PK (unknown origin) expressed in human HeLa cells. It counts as cell-based.
The target in data set [2] is T1, Serine/threonine-protein kinase Chk1 (Homo sapiens, UniProt O14757).
T1 sequence (O14757 whole entry): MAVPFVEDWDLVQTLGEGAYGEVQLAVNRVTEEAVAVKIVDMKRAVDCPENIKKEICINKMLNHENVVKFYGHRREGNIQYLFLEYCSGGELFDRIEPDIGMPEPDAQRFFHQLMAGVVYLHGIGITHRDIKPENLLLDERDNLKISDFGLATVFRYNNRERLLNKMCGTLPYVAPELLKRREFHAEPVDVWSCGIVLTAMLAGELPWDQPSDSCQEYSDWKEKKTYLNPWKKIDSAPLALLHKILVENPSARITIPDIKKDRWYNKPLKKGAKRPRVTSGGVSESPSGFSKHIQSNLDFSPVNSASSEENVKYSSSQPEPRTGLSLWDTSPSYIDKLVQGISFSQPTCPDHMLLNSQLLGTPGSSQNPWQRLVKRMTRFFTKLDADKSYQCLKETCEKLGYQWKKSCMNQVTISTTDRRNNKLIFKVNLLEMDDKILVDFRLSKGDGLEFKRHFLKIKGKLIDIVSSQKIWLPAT
The data set can be described thus: Inhibition of CHK1 (unknown origin).

Data set [3] can be described thus: AUC (0 to t) in Sprague-Dawley rat at 20 mg/kg, po by LC-MS/MS analysis. To be noted: in vivo. In kind it is ADME, organism-based.
The test system of a further data set is MDA-MB-436. Briefly: Antiproliferative activity against human MDA-MB-436 cells assessed as reduction in cell viability. In kind it is functional, cell-based.
The target in data set [4] is Serine/threonine-protein kinase ATR (Homo sapiens, UniProt Q13535). The data set can be described thus: Inhibition of human recombinant ATR incubated for 40 mins by fluorescence based analysis.
Serine/threonine-protein kinase ATR, sequence (Q13535 whole entry): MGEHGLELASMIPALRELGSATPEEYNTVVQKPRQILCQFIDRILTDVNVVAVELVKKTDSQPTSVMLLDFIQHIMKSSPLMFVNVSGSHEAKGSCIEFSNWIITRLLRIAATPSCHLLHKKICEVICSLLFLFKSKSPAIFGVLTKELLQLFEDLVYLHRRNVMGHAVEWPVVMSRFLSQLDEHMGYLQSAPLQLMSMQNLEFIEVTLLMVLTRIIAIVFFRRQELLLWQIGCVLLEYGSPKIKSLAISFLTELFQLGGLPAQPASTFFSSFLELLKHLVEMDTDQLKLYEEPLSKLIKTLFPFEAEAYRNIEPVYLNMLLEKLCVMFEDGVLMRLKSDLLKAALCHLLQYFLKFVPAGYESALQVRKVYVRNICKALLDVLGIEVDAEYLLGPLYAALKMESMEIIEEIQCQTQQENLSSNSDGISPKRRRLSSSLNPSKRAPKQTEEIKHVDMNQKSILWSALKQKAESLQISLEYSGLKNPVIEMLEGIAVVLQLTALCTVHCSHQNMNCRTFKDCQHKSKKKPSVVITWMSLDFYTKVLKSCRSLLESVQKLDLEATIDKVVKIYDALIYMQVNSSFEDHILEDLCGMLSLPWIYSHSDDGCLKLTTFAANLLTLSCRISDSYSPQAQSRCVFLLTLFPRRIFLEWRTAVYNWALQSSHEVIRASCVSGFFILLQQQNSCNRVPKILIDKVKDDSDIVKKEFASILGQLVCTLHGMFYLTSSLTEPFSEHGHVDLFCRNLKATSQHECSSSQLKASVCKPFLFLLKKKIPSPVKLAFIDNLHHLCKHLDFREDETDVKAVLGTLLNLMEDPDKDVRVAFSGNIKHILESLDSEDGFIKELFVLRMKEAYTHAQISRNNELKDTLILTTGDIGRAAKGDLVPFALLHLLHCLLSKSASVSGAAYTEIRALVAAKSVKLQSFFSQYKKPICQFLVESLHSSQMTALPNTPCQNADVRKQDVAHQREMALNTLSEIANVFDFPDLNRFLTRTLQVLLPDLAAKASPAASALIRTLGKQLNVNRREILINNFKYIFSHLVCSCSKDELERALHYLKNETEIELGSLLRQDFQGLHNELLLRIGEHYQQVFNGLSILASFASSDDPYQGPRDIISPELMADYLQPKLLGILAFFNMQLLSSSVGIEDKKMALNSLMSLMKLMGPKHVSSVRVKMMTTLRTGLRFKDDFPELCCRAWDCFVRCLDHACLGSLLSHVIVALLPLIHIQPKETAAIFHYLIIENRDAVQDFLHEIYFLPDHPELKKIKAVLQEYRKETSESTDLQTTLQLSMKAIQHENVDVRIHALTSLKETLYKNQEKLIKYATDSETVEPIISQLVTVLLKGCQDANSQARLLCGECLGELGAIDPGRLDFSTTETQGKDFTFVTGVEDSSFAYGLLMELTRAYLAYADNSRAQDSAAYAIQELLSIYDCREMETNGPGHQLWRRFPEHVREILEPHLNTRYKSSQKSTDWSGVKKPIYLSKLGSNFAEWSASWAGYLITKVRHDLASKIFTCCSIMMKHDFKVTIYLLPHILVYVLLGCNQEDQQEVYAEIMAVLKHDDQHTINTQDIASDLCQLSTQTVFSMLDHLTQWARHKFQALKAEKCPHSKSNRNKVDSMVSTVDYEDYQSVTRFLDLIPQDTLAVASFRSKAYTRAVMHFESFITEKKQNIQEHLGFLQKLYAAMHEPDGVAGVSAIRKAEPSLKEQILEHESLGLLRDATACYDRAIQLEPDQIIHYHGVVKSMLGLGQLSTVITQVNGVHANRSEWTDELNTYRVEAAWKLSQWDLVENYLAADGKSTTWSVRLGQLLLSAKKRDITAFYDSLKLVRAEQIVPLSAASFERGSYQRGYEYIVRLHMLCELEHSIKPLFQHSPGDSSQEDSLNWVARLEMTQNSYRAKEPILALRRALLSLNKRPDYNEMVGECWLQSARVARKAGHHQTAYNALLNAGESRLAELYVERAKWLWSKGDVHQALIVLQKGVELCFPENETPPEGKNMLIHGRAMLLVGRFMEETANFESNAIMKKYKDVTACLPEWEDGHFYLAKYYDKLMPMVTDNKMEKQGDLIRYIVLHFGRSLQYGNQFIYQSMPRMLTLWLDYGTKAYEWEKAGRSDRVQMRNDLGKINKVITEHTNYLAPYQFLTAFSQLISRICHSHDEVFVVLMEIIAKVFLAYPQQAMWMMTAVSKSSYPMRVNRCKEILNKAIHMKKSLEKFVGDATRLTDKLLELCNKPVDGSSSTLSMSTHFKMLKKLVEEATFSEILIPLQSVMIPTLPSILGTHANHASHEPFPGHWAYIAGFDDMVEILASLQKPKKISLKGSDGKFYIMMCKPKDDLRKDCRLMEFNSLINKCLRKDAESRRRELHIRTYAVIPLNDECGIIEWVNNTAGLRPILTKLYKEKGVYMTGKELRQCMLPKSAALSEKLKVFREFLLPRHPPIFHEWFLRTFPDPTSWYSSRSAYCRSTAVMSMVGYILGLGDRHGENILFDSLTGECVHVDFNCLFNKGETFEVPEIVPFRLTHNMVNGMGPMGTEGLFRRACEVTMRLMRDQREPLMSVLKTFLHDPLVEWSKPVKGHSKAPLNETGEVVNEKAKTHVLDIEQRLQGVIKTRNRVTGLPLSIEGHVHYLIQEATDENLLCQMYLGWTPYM
The target of data set [5] is Serine-protein kinase ATM (Homo sapiens, UniProt Q13315). The data set can be described thus: Inhibition of ATM (unknown origin).
The nature of data set [6]: Antiproliferative activity against human HCT116-MTAP null cells assessed as reduction in cell growth incubated for 72 hrs by MTT assay. It counts as functional, cell-based.
Data set [7] has as its target Protein arginine N-methyltransferase 5 (Homo sapiens, UniProt O14744). The data set can be described thus: Binding affinity to PRMT5 (unknown origin) assessed as inhibition constant.
Data set [8] has as its target Serine/threonine-protein kinase VRK2 (Homo sapiens, UniProt Q86Y07). Briefly: Inhibition of VRK2 (14 to 335 residues) (unknown origin) extracted from Escherichia coli BL21 (DE3)-R3 cells.
Data set [9] deals with Serine/threonine-protein kinase mTOR (Homo sapiens, UniProt P42345). The data set can be described thus: Inhibition of human mTOR.
Data set [10] concerns the target T2, DNA repair protein RAD51 homolog 1 (Homo sapiens, UniProt Q06609).
T2 sequence (Q06609 whole entry): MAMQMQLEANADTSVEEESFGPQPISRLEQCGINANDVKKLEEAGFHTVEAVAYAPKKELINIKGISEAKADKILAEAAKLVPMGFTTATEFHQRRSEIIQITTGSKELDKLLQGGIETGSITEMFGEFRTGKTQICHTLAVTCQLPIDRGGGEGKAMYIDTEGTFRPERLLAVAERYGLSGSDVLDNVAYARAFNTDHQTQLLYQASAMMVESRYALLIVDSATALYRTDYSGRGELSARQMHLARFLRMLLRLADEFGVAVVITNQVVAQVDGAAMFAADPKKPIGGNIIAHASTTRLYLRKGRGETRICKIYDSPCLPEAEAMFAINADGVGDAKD
Briefly: Inhibition of RAD51 (unknown origin).

Data set [11] addresses Poly [ADP-ribose] polymerase 1 (Homo sapiens, UniProt P09874). Briefly: Inhibition of PARP-1 (unknown origin).
Data set [12] can be described thus: Half life in Sprague-Dawley rat at 20 mg/kg, po by LC-MS/MS analysis. It counts as ADME, organism-based. To be noted: in vivo.
A further data set concerns MV4-11. The data set can be described thus: Antiproliferative activity against human MV4-11 cells assessed as reduction in cell viability incubated for 72 hrs by MTS assay. In kind it is functional, cell-based. To be noted: MV4-11, 72 h.

The term IC50 denotes the midpoint of a concentration-inhibition curve. The term AUC(0-t) denotes the area under the concentration-time curve up to a stated or last time point. Read a high AUC(0-t) as high exposure. The Ki is the dissociation constant of the complex between target and ligand, obtained from inhibition or displacement. One may read the half-life as how long it takes for the measured level to halve.

Serine/threonine-protein kinase VRK2, sequence (Q86Y07 whole entry, the tested form may be a part): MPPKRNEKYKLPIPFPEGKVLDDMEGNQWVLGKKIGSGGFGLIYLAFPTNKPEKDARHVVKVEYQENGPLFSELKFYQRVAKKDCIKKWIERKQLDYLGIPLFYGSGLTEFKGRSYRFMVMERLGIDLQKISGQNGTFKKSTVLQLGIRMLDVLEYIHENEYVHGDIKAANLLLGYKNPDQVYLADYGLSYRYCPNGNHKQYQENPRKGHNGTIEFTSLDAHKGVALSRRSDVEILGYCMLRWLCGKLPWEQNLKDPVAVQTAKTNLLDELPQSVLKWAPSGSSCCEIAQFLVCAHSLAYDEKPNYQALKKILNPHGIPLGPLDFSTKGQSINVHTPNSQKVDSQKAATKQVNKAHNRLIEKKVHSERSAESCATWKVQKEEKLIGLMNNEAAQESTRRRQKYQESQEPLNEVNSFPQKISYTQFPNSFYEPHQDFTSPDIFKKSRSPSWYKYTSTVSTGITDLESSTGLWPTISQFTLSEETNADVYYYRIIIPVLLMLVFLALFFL
Poly [ADP-ribose] polymerase 1, sequence (P09874 whole entry): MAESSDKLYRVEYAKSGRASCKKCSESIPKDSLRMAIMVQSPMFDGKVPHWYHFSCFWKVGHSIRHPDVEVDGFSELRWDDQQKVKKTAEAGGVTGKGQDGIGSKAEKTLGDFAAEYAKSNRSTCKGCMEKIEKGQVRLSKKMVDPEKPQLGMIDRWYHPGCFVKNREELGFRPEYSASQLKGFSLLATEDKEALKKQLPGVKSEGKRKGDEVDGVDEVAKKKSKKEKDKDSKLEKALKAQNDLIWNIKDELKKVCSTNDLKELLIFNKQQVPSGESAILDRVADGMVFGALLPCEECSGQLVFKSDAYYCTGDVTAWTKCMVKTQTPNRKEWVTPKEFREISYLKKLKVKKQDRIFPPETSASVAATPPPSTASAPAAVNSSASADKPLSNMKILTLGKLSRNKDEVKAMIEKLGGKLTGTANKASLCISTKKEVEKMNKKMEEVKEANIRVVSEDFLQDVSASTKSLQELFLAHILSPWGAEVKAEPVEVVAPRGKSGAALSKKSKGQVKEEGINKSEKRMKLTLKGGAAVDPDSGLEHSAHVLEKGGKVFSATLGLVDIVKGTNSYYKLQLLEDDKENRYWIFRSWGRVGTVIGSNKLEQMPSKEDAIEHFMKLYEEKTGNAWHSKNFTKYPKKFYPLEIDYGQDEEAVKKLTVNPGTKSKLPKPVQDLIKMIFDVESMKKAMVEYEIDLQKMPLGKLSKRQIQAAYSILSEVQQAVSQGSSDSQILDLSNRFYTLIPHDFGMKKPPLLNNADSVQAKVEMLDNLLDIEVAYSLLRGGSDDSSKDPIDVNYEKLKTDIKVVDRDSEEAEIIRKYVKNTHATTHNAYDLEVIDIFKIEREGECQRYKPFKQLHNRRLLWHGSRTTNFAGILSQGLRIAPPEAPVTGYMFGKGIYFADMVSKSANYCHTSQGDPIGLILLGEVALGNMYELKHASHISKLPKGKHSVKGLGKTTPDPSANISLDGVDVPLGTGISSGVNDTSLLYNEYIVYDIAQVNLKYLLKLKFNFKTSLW
Protein arginine N-methyltransferase 5, sequence (O14744 whole entry, the tested form may be a part): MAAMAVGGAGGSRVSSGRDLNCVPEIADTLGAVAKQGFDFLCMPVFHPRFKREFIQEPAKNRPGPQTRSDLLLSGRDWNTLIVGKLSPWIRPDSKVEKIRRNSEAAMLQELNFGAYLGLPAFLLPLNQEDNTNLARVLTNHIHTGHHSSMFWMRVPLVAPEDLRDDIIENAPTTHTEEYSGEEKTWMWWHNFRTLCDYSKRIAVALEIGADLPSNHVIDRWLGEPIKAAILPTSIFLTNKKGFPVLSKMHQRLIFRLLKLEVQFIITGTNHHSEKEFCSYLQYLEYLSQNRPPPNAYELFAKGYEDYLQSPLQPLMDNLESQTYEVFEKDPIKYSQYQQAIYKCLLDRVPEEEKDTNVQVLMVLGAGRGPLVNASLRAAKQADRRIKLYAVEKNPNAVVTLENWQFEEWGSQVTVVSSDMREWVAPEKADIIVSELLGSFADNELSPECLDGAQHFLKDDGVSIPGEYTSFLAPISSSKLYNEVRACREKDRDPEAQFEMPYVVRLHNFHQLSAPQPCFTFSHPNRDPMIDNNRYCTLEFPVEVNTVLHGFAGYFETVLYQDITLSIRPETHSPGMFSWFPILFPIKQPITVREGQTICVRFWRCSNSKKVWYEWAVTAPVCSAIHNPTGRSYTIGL

Consider `Cc1cc2ncc3n2cc1Nc1ncc2c(n1)n(c(=O)n2C)CCCCC3`, for which, in data set [1], half-maximal inhibition (IC50) was put at 4 nM.

In data set [2], `N#Cc1ncc(Nc2ncc(-c3ccccc3)s2)cc1N[C@@H]1CCNC1` came in with a half-maximal inhibitory concentration (IC50) of 4.25 nM. The same molecule returned an AUC(0-t) in data set [3] (Sprague-Dawley) of 10700 ng·h/mL.

In turn, `COc1cccc(NC(=O)c2cc(-c3ccc(CC4C(=O)N(c5cccc(C(=O)O)c5)N=C4C(F)(F)F)o3)ccc2Cl)c1` (stereo unspecified) came in with a concentration for half-maximal inhibition (IC50) in data set [1] of 110 nM.

As for `COc1cccc(NC(=O)c2cc(-c3ccc(CC4C(=O)N(c5cccc(-c6nnn[nH]6)c5)N=C4C)o3)ccc2Cl)c1` (stereo unspecified), the half-maximal inhibitory concentration (IC50) in [1] stood at 240 nM.

`O=C(c1cc(Cc2n[nH]c(=O)c3ccccc23)ccc1F)N1CCN(C(=O)C2CC2)CC1` [OLAPARIB]: the half-maximal inhibitory concentration (IC50) in the data set on MDA-MB-436 came to 23900 nM.

With `Cc1cc(C(N)=O)ccc1Nc1ncc2c(n1)n(C1CCOCC1)c(=O)n2C`, in data set [1], the 50% inhibitory concentration (IC50) came out at 0.08 nM.

Consider `C[C@@H]1COCCN1c1nc(-c2ccnn2C)c2c(n1)c(-c1ccn[nH]1)nn2C`, for which the IC50 in data set [4] was 1 nM.

In [1], `COC1/C=C/Cc2cnc3cc(C)c(cn23)Nc2ncc3c(n2)n(c(=O)n3C)CC1` (stereo unspecified) returned an IC50 of 4 nM.

As to `Cn1c(=O)n2c3ccccc3oc3c(-c4ccc(OCCCN5CCCCC5)nc4)c(F)cc4ncc1c2c43`, half-maximal inhibition in data set [5] (IC50) was put at 0.45 nM.

On to `COc1cccc(NC(=O)c2cc(-c3ccc(CC4C(=O)N(c5cccc(C(=O)O)c5)N=C4C)o3)ccc2Cl)c1` (stereo unspecified), for which, in data set [1], the IC50 worked out at 500 nM.

Turning to `Cc1cc2cc(C(=O)N(Cc3ccc(C(F)(F)F)cn3)[C@@H]3CCCc4cn[nH]c43)ccc2nc1N`, the IC50 in data set [6] was determined as 10 nM. Besides, in data set [7], the Ki came out at 0.05 nM.

`CC(C)CCN1c2nc(Nc3cc(F)c(O)c(F)c3)ncc2N(C)C(=O)[C@@H]1C` registered a half-inhibitory concentration (IC50) in data set [8] of 196 nM.

Take `C[C@@H]1COCCN1c1cc([C@]2(O)C[C@H]3CC[C@@H](C2)O3)c2cnn(-c3cc[nH]n3)c2n1` [CAMONSERTIB]: the IC50 in data set [4] was 1 nM; in data set [9] it was 120 nM.

`COc1cccc(NC(=O)c2cc(-c3ccc(/C=C4\C(=O)N(c5cccc(C(=O)O)c5)N=C4C)o3)ccc2Cl)c1`: half-maximal inhibition in data set [1] (IC50) was put at 3120 nM.

As to `C[C@@H]1COC[C@H]2COc3c(nc(-c4ccnc5[nH]ccc45)nc3C(C)(C)C#N)N21`, the IC50 in data set [4] amounted to 16 nM.

On to `O=c1nc(/C=C/c2cccnc2)n(Cc2ccc(I)cc2)c2ccccc12`, for which the IC50 in [10] was found to be 720 nM.

Molecule `COc1cc2ncn(-c3cc(OCc4ccccc4C(F)(F)F)c(C(N)=O)s3)c2cc1OC` [GW843682X] gave a concentration for half-maximal inhibition (IC50) in [5] of 480 nM.

On to `Nc1nc2cc(F)c(C(=O)N(Cc3ccc(C(F)(F)F)cn3)C34CC(C3)C4)cc2c2c1COC2`, for which the IC50 in data set [6] was found to be 8 nM.

`O=c1nc(/C=C/c2cccnc2)n(Cc2ccccc2)c2ccccc12`: the concentration for half-maximal inhibition (IC50) in [10] was 4300 nM.

Regarding `Cc1ccoc1C(=O)N1CCCN(C(=O)c2ccc(-c3nc4c(C(N)=O)cccc4[nH]3)cc2)CC1`, the IC50 in data set [11] stood at 22.8 nM.

In data set [12], `Cn1cc(-c2cnc(Nc3ccc(C#N)nc3)nc2N[C@H]2CCCNC2)cn1` gave a half-life of 5.3 h. Besides, the AUCt in data set [3] (po, 20 mg/kg) was determined as 1370 ng·h/mL. For the same molecule, the concentration for half-maximal inhibition (IC50) in the data set with MV4-11 stood at 35 nM.

For the origin of these results see ChEMBL document CHEMBL6127039, “An update on small molecule compounds targeting synthetic lethality for cancer therapy” (Eur J Med Chem, 2024).
